Consider 16 compounds from ChEMBL document CHEMBL1201862, “PubChem BioAssay data set” (2004).

Test systems include KM12; MOLT-4; RXF 393; IGROV-1; K562; A498; HOP-92; NCI-H522; SF-539; SK-MEL-28; HCT-15; SNB-19; UO-31; SNB-75.
Common to all, as to assay: NCI tumour cell line growth inhibition, 48 h

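Where inhibition never reached the appropriate level, the endpoint shown equals the highest concentration tested. Otherwise, values were interpolated linearly from a five-concentration, 48-hour dose response in 96-well plates. GI50 is the concentration that inhibits growth by half.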 Activity calls are given as the source filed them. No stated cut-off is given here; in the data, active = GI50 up to about 1.1 µM and inactive = higher.

For the compound `Cn1c(N)c(-c2c3ccccc3nc3ccccc23)c(=O)n(C)c1=O`, the GI50 with KM12, in the experiment with MOLT-4, with RXF 393, in the experiment on IGROV-1, in the experiment on K562 and in the experiment on A498 was > 100 µM (inactive) each time. The GI50 in the experiment on HOP-92 was > 100 µM (inactive); in the experiment on NCI-H522 it was > 100 µM (inactive); with SF-539, > 100 µM (inactive); in the experiment with SK-MEL-28, > 100 µM (inactive); in the experiment on HCT-15, above 100 µM.

`O=C(c1ccc2c3c(ccc(C(=O)C(F)(F)F)c13)CC2)C(F)(F)F`: the GI50 in the experiment with SNB-19 was 86.7 µM (inactive); in the experiment with UO-31 it was 43.2 µM (inactive); with KM12, 44.1 µM (inactive); with MOLT-4 it was 61.4 µM (inactive); in the experiment on RXF 393 it was 55.6 µM (inactive); in the experiment with IGROV-1 it was 74 µM (inactive). The GI50 was 47.9 µM (inactive) in the experiment with A498; 27 µM (inactive) in the experiment on HOP-92; 29.8 µM (inactive) in the experiment with NCI-H522; > 100 µM (inactive) with SF-539; 62.2 µM (inactive) with SK-MEL-28; 58.7 µM in the experiment on HCT-15. The GI50 with SNB-75 is 29.4 µM (inactive).

With `CCOC(=O)C(=O)Nc1nc2c(OCC)cccc2s1`, the GI50 with SNB-19, in the experiment on UO-31, in the experiment with KM12, in the experiment on MOLT-4, in the experiment on RXF 393 and with IGROV-1 was > 100 µM (inactive) throughout. Besides, the GI50 in the experiment with K562, in the experiment on A498, in the experiment on HOP-92, in the experiment with NCI-H522, in the experiment with SF-539 and with SK-MEL-28 was > 100 µM (inactive) throughout. The GI50 in the experiment on HCT-15 is above 100 µM; with SNB-75, > 100 µM (inactive).

On to `N#CC(/C(=N/NC(=O)C(=O)NN)C(=O)Nc1nc([N+](=O)[O-])cs1)c1ccc(Cl)cc1` (configuration not stated), for which the GI50 with SNB-19, in the experiment on UO-31, in the experiment with KM12, in the experiment with MOLT-4, in the experiment on RXF 393 and in the experiment on IGROV-1 was > 100 µM (inactive) in each case. Moreover, the GI50 with HOP-92, in the experiment with SK-MEL-28 and in the experiment on SNB-75 was > 100 µM (inactive) each time.

For the compound `COc1ccc(CNc2nc3ccccc3nc2-c2cccs2)cc1OC`, the GI50 is > 100 µM (inactive) with SNB-19; 22.6 µM (inactive) in the experiment on UO-31; 12.6 µM (inactive) with MOLT-4; 41.9 µM (inactive) with RXF 393; 59.4 µM (inactive) with K562; 13.4 µM (inactive) with HOP-92. In addition, the values for the GI50 in the experiment with SF-539, with SK-MEL-28 and in the experiment on HCT-15 were 41 µM (inactive), 84.5 µM (inactive) and 34.8 µM, respectively.

For `Cc1ccccc1NC(=O)C(=O)C(c1cnc2ccc([N+](=O)[O-])cc2n1)[N+](=O)[O-]` (configuration not stated), the GI50 with SNB-19 was > 100 µM (inactive); in the experiment with UO-31, 54 µM (inactive); in the experiment on KM12, > 100 µM (inactive); with MOLT-4, 66.1 µM (inactive); in the experiment on RXF 393, > 100 µM (inactive); with IGROV-1, > 100 µM (inactive). The GI50 with K562 is 39.1 µM (inactive); with A498, > 100 µM (inactive); with HOP-92, > 100 µM (inactive); in the experiment on NCI-H522 it was 27.4 µM (inactive); with SF-539 it was > 100 µM (inactive); in the experiment with SK-MEL-28, > 100 µM (inactive). The GI50 was above 100 µM in the experiment on HCT-15 and > 100 µM (inactive) with SNB-75.

`N#C/C1=C(\N)CCSSSC1`: the GI50 is 37.2 µM (inactive) in the experiment with SNB-19; 56.4 µM (inactive) in the experiment on UO-31; 51.1 µM (inactive) in the experiment with KM12; 69.3 µM (inactive) in the experiment with MOLT-4; 58.3 µM (inactive) in the experiment with RXF 393; 29.7 µM (inactive) in the experiment on IGROV-1. Also, the GI50 with K562 was 55.3 µM (inactive); with A498 it was 28.9 µM (inactive); in the experiment with HOP-92, 32.1 µM (inactive); with NCI-H522, 20.9 µM (inactive); in the experiment with SF-539, 33.4 µM (inactive); in the experiment with SK-MEL-28, 43.6 µM (inactive). Further, the GI50 was 27.9 µM in the experiment with HCT-15 and 42.3 µM (inactive) in the experiment with SNB-75.

Turning to `CC(=O)Nc1ccccc1[S+]([O-])c1ccccc1` (configuration not stated), the GI50 with SNB-19, in the experiment on UO-31, in the experiment with KM12, in the experiment on MOLT-4, in the experiment with RXF 393 and in the experiment with IGROV-1 was > 100 µM (inactive) in each case. In addition, the GI50 in the experiment on K562 is > 100 µM (inactive); in the experiment with A498, > 100 µM (inactive); in the experiment on HOP-92 it was > 100 µM (inactive); in the experiment with NCI-H522 it was 71.8 µM (inactive); in the experiment on SF-539, > 100 µM (inactive); in the experiment with SK-MEL-28, > 100 µM (inactive). For the same compound, the figures for the GI50 with HCT-15 and with SNB-75 were above 100 µM and > 100 µM (inactive), respectively.

Take `C#CCN(C)C(=O)N(CC#C)N=O`: the GI50 with SNB-19, in the experiment on UO-31, with KM12, with MOLT-4, in the experiment on RXF 393 and in the experiment on IGROV-1 was > 100 µM (inactive) throughout. The GI50 with K562, in the experiment on A498, in the experiment with HOP-92, with NCI-H522, with SF-539 and in the experiment on SK-MEL-28 was > 100 µM (inactive) each time. For the same compound, the GI50 is above 100 µM in the experiment with HCT-15 and > 100 µM (inactive) in the experiment on SNB-75.

For `CC(C)(CN1CCCCC1)C(=O)/C=C/c1ccccc1`, the GI50 is 16.4 µM (inactive) in the experiment with SNB-19; 15.2 µM (inactive) with UO-31; 9.25 µM (inactive) in the experiment on KM12; 10.3 µM (inactive) with MOLT-4; 11.9 µM (inactive) in the experiment on RXF 393; 22.8 µM (inactive) with IGROV-1. Also, the GI50 is 3.4 µM (inactive) in the experiment with K562; 18.5 µM (inactive) in the experiment on A498; 13.2 µM (inactive) in the experiment with NCI-H522; 10.8 µM (inactive) in the experiment on SF-539; 15.6 µM (inactive) with SK-MEL-28; 13.1 µM in the experiment on HCT-15. For the same compound, the GI50 in the experiment on SNB-75 was 11.6 µM (inactive).

Regarding `CCc1cc(Cc2cc(CC)c(NC(=O)C3=CC(=O)CC(c4ccc(OC)cc4)O3)c(CC)c2Cl)c(Cl)c(CC)c1NC(=O)C1=CC(=O)CC(c2ccc(OC)cc2)O1` (configuration not stated), the GI50 is 21.4 µM (inactive) with SNB-19; 16.5 µM (inactive) with UO-31; 10.5 µM (inactive) with KM12; 31.8 µM (inactive) in the experiment with MOLT-4; 17.9 µM (inactive) in the experiment on RXF 393; 22.4 µM (inactive) in the experiment with IGROV-1. Moreover, the GI50 was 32.1 µM (inactive) in the experiment on K562; 21.7 µM (inactive) in the experiment on A498; 20.8 µM (inactive) with HOP-92; 20.2 µM (inactive) in the experiment on SF-539; 23.3 µM (inactive) in the experiment with SK-MEL-28; 25.6 µM in the experiment on HCT-15. For the same compound, the GI50 in the experiment on SNB-75 is 20 µM (inactive).

In the case of `O=C(c1ccccc1)C(c1ccccc1)C1(O)C(=O)Nc2ccccc21` (configuration not stated), the GI50 was > 100 µM (inactive) with SNB-19; 44.4 µM (inactive) in the experiment with UO-31; > 100 µM (inactive) in the experiment on MOLT-4; > 100 µM (inactive) with RXF 393; > 100 µM (inactive) with IGROV-1; > 100 µM (inactive) with K562. Also, the GI50 with A498 is > 100 µM (inactive); with HOP-92, > 100 µM (inactive); with NCI-H522, > 100 µM (inactive); in the experiment on SF-539, > 100 µM (inactive); in the experiment on SK-MEL-28, > 100 µM (inactive); in the experiment on HCT-15, above 100 µM. In addition, the GI50 in the experiment with SNB-75 is 43.6 µM (inactive).

Turning to `Cc1ccc(S(=O)(=O)n2cc(/C=C/C#N)c(/C=C/C#N)c2)cc1`, the GI50 was 57.9 µM (inactive) with SNB-19; 23.4 µM (inactive) in the experiment on UO-31; 48.4 µM (inactive) in the experiment with KM12; 29.3 µM (inactive) in the experiment with MOLT-4; 33.7 µM (inactive) in the experiment with RXF 393; > 100 µM (inactive) in the experiment on IGROV-1. Besides, the GI50 with K562 is 34 µM (inactive); with A498 it was 50.5 µM (inactive); with HOP-92, 24.8 µM (inactive); with NCI-H522, > 10 µM (inactive); with SF-539, > 100 µM (inactive); in the experiment on SK-MEL-28, > 100 µM (inactive). For the same compound, the GI50 is 88.9 µM in the experiment on HCT-15 and 29.8 µM (inactive) in the experiment with SNB-75.

Turning to `Cc1ccc(C(=O)NC(C)C)cc1/N=N/N(C)C`, the GI50 in the experiment with SNB-19, in the experiment on UO-31, in the experiment on KM12, in the experiment on IGROV-1, in the experiment on HOP-92 and in the experiment on NCI-H522 was > 100 µM (inactive) throughout. Besides, the GI50 is > 100 µM (inactive) in the experiment on SF-539, > 100 µM (inactive) with SK-MEL-28 and above 100 µM in the experiment with HCT-15.

With `CC(=O)O[C@H]1CCN2C(=O)C=CC(OCc3ccccc3)C12` (some centres not stated), the GI50 in the experiment on UO-31, in the experiment with KM12, in the experiment on MOLT-4, with IGROV-1, in the experiment on K562 and with A498 was > 100 µM (inactive) each time. Also, the GI50 in the experiment with HOP-92 is > 100 µM (inactive); with SF-539, > 100 µM (inactive); in the experiment on SK-MEL-28, > 100 µM (inactive); in the experiment on HCT-15 it was above 100 µM; in the experiment on SNB-75 it was > 100 µM (inactive).

As for `CC12CC[C@@H](C(C)(C)O)C1[C@@H](O)CC1(C)C2CCC2[C@@]3(C)CC[C@H](O)C(C)(C)C3C(O)C[C@]21C` (some centres not stated), the GI50 with SNB-19 is 21.1 µM (inactive); in the experiment with UO-31 it was 21.6 µM (inactive); in the experiment on KM12, 14.6 µM (inactive); with MOLT-4, 4.07 µM (inactive); in the experiment on RXF 393, 6.85 µM (inactive); in the experiment on IGROV-1 it was 17.7 µM (inactive). The GI50 with K562 is 11.8 µM (inactive); in the experiment with A498, 13.5 µM (inactive); with HOP-92 it was 17.4 µM (inactive); in the experiment with SF-539 it was 15.8 µM (inactive); in the experiment on SK-MEL-28 it was 16.8 µM (inactive); with HCT-15, 11.5 µM.
